Data reported in publication PMC6912754, “Identification of A Novel Class of Benzofuran Oxoacetic Acid-Derived Ligands that Selectively Activate Cellular EPAC1” (Cells, 2019).

Target: T1, EPAC2-CNBD (Homo sapiens, UniProt Q8WZA2)
T1 construct: gene RAPGEF4
Assay: biochemical
Design: 8-NBD-cAMP competition binding to GST-CNBD, fluorescence intensity 480/535 nm, dose response
Conditions: 8-NBD-cAMP displacement, mean; read-out: Pharmacology assay data / EPAC2 pIC50 (mean) (converted)
Protocol: 8-(2-[7-nitro-4-benzofurazanyl] aminoethylthio) adenosine-3′,5′-cyclic monophosphate (8-NBD-cAMP) competition assays were performed with purified EPAC1-CNBD and EPAC2-CNBD GST-fusion proteins as previously described. Comparison of reference molecules, dose response curves (DRC) and pilot screens were done in black, low volume 384 assay plates (Greiner). Plates were incubated for 4 h before 8-NBD-cAMP fluorescence intensity at 480/535 nm (ex/em) was measured using the Envision multi-label plate reader (Perkin-Elmer; Waltham, MA, USA). EPAC1-CNBD (amino acids 169–318 of EPAC1) and EPAC2-CNBD (amino acids 304-453) cDNAs were previously sub-cloned into the multi-cloning site of the pGEX-6P-1 expression vector (GE Healthcare) by BC Bioscienes (Dundee, Scotland). Ral-GDS-RBD (amino acids 788-884) was cloned into pGEX-5X-1 as described. Recombinant EPAC1-CNBD, EPAC2-CNBD, EPAC1 (amino acids 149–881), Ral-GDS-RBD (amino acids 788-884), and Rap1B (amino acids 1–167) glutathione S-transferase (GST)-fusion proteins were then expressed and purified from BL-21 Escherichia coli, as previously described. Protein concentrations were determined by the bicinchoninic acid (BCA) assay or by Nanodrop 2000/2000c (Thermo Scientific). All recombinant proteins were determined to be pure by SDS-PAGE analysis. Proteins were stored in aliquots at −80 °C until required. Preliminary SAR on a benzofuran oxo-acetic acid series, based on SY000, was done using 8NBD-cAMP binding to EPAC1 and EPAC2 CNBDs, as summarized in the Supplementary Table, Supplementary Figures and Figure 4. […] Further alternatives to the R1 group (Figure S2), including reducing the linker length by a single [compound left out] […] In addition, N-methylation of the amide portion (ESC100960) also results in loss of activity. This could indicate a role for the NH as a hydrogen bond donor or that the substitution could adversely affect the conformation of the adjacent oxo-acetic acid group.

T1 sequence (Q8WZA2 whole entry): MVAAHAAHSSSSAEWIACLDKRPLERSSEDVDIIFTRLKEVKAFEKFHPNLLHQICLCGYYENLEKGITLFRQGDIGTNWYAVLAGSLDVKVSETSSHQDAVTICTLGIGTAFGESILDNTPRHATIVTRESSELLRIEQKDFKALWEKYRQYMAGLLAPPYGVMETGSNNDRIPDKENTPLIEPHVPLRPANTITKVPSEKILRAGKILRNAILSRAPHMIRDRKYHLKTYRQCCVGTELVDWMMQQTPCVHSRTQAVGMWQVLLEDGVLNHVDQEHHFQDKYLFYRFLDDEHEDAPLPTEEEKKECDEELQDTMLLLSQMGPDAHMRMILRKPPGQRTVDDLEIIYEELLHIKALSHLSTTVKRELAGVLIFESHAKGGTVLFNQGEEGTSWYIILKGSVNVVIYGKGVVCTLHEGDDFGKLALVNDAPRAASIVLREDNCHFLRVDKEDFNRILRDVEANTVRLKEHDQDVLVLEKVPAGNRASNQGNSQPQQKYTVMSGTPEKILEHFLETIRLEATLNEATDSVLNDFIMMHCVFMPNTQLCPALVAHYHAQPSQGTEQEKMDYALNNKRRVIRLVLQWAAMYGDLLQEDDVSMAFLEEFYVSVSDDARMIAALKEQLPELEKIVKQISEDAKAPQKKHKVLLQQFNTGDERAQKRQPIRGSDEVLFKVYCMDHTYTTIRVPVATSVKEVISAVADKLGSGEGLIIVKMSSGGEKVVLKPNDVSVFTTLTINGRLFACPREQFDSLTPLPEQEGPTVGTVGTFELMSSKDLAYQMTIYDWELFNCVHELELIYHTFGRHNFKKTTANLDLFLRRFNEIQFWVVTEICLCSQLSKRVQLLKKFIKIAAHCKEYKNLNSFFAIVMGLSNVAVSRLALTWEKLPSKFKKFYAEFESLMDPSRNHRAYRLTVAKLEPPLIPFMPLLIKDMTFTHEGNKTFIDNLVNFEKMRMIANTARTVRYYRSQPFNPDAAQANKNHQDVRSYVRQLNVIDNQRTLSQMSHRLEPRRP

Question: Which IC50 does the source give for Cc1c(C(=O)c2cccc(Br)c2)oc2ccc(CNC(=O)C(=O)O)cc12 [ESC1000906] here?
Answer: 7.94 µM

Question: How did the IC50 turn out when Cc1ccc(C(=O)c2oc3ccc(CNC(=O)C(=O)O)cc3c2C)cc1 [SY000] was run?
Answer: 7.94 µM

Question: With Cc1ccc(C(=O)c2oc3ccc(CNC(=O)C(=O)O)cc3c2C(C)(C)C)cc1 [SY006] as the molecule, how does the IC50 read?
Answer: 22.4 µM

Question: How did the IC50 turn out when CCc1c(C(=O)c2ccc(C)cc2)oc2ccc(CNC(=O)C(=O)O)cc12 [SY007] was run?
Answer: 5.01 µM

Question: Which IC50 does the source give for Cc1ccc(C(=O)c2oc3ccc(CNC(=O)C(=O)O)cc3c2C(C)C)cc1 [SY009] here?
Answer: 31.6 µM
